One assay deals with CB2 receptor (Mus musculus, UniProt P47936). Nature of the assay: visualization of CB2 receptor binding by CD4+ T cells, confocal microscopy. The class given is cell-based. As to conditions: 5 µM, on ice for 30 minutes, T cells from peripheral lymph nodes of BALB/C mice.
A further assay deals with CB2. As to conditions: read-out: CB2 functional activity EC50; GTPγ[35S] assay; antagonist series; cited from earlier work.
In another assay the target is CB1 (Homo sapiens, UniProt P21554). As to conditions: GTPγ[35S] assay; antagonist series; cited from earlier work.
Chain of CB1 (P21554 whole entry, species assumed): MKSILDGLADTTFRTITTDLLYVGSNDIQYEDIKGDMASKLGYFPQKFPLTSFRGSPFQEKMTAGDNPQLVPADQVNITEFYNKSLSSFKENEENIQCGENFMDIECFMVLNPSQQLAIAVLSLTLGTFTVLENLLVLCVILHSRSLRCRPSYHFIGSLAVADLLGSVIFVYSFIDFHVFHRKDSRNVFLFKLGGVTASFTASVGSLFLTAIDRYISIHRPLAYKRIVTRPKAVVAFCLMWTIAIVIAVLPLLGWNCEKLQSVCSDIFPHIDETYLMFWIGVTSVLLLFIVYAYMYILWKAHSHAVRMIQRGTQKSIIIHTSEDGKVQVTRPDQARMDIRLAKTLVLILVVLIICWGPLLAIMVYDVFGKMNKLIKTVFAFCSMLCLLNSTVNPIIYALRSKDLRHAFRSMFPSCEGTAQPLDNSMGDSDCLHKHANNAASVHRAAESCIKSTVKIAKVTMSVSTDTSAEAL

Chain of CB2 receptor (P47936 whole entry): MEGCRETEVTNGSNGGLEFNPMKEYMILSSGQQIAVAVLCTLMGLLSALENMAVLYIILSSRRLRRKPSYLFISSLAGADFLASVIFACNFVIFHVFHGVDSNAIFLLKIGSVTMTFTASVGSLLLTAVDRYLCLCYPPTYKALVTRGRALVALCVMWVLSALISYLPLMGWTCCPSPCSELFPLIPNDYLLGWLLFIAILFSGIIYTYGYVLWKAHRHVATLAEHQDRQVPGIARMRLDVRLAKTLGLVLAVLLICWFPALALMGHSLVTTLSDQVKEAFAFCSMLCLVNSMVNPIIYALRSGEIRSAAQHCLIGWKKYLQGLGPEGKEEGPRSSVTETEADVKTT

As for `CCCCCN1C(=O)/C(=N\NC(=O)CN(C)c2ccc([N+](=O)[O-])c3nonc23)c2ccc(OC)cc21` [Compound 6], the “staining of CD4+ T cells” value on CB2 receptor is “stained the CD4^+ T cells”.
In the case of `CCCCCN1C(=O)/C(=N\NC(=O)CN2CCOCC2)c2ccc(OC)cc21` [Compound 5], the EC50 with CB2 was 13.3 nM. In addition, the CB1 activity result at CB1 was “did not show any CB1 functional activity”.

These data come from paper PMC3171627 (Bioorganic & medicinal chemistry letters, 2011).
